Data set [1] can be described thus: Caco-2 bi-directional permeability assay. The data set is classed as in vitro ADME, human. The settings on record: human. How it is done:
Intestinal permeability of cannabinoids and glycosylated cannabinoids was determined by measuring bi-directional transport across Caco-2 cell membranes. Caco-2 cells are used as an in vitro model of the human intestinal epithelium and permit assessment of the intestinal permeability of potential drugs. The test compound is added to either the apical or basolateral side of a confluent monolayer of Caco-2 cells and permeability is measured by monitoring the appearance of the test compound on the opposite side of the monolayer using LC-MS/QTOF. When performing a bi-directional assay, the efflux ratio (ER) is calculated from the ratio of B−A and A−B permeabilities. Caco-2 cells obtained from the ATCC are used between passage numbers 40-60. Cells are seeded onto Millipore Multiscreen Transwell plates at 1×10^5 cells/cm2. The cells are cultured in DMEM and media is changed every two or three days. On day 20 the permeability study is performed. Cell culture and assay incubations are carried out at 37° C. in an atmosphere of 5% CO2 with a relative humidity of 95%. On the day of the assay, the monolayers are prepared by rinsing both apical and basolateral surfaces twice with Hanks Balanced Salt Solution (HBSS) at the desired pH warmed to 37° C. Cells are then incubated with HBSS at the desired pH in both apical and basolateral compartments for 40 min to stabilize physiological parameters. 10 mM solutions of cannabinoids and cannabinoid glycosides are prepared in DMSO then diluted with assay buffer to give a final test compound concentration of 10 μM (final DMSO concentration of 1% v/v). The fluorescent integrity marker lucifer yellow is also included in the solution.
Analytical standards are prepared from test compound DMSO dilutions and transferred to buffer, maintaining a 1% v/v DMSO concentration. For assessment of A−B permeability, HBSS is removed from the apical compartment and replaced with test compound solution. The apical compartment insert is then placed into a companion plate containing fresh buffer (containing 1% v/v DMSO). For assessment of B−A permeability, HBSS is removed from the companion plate and replaced with test compound solution. Fresh buffer (containing 1% v/v DMSO) is added to the apical compartment insert, which is then placed into the companion plate. At 120 min the apical compartment inserts and the companion plates are separated and apical and basolateral samples diluted for analysis. Test compound permeability is assessed in duplicate. Compounds of known permeability characteristics are run as controls on each assay plate. Test and control compounds are quantified by LC-MS/QTOF as described above. The starting concentration (C0) is determined from the solution and the experimental recovery calculated from C0 and both apical and basolateral compartment concentrations. The integrity of the monolayer throughout the experiment is checked by monitoring lucifer yellow permeation using fluorometric analysis. The permeability coefficient (Papp) for each compound is calculated from the following equation: Papp=(dQ/dt)/(C0×A) Where dQ/dt is the rate of permeation of the drug across the cells, C0 is the donor compartment concentration at time zero and A is the area of the cell monolayer. C0 is obtained from analysis of the dosing solution. The efflux ratio (ER) is calculated from mean Papp values from A−B and B−A data. This is derived from: ER=Papp(B−A)/Papp(A−B). The % recovery is calculated from the following equation; % recovery=(Total compound in donor and receiver compartment at end of experiment)/(initial compound present)×100.
CBD glycosides were produced using glycosyl transferases and purified as described above. […] Low recovery of compound in a Caco-2 permeability assay can indicate problems with poor solubility, binding of the compound to the plate, metabolism by the Caco-2 cells or accumulation of the compound in the cell monolayer.
In general terms: Passage across Caco-2 layers is used to estimate intestinal permeability.

A short description of data set [2]: In vitro enzymatic cascade converting sucrose and CBD to CBD glycosides. The data set is classed as biochemical. Particulars: enzymes added: GmSuSy, Cs73Y. The source says: In the previous examples, in vitro glycosyl transferase assays required the addition of an “activated” sugar (e.g. UDP-glucose), which is typically an extremely expensive reagent, furthermore, other activated sugars e.g. UDP-rhamnose are not available commercially and must be custom synthesized at high-cost and difficulty. […] To facilitate the low-cost production of cannabinoid glycosides not only with glucose, but with alternative sugars, an enzymatic cascade was set up to convert cannabinoids and the simple sugar sucrose into various cannabinoid glycosides. The cascade is divided into 3 steps, in step 1 sucrose and uridine diphosphate (UDP) is converted to UDP-glucose by GmSuSy (SEQ ID NO: 209, 210), additionally generating fructose as a bi-product. In step 2, UDP-glucose is interconverted to alternative UDP-sugars using a range of enzymes. For example, conversion of UDP-glucose to UDP-galactose by BsGa/E, multiple enzymes can also be used to produce UDP-sugars via other UDP-sugar intermediates. For example, conversion of UDP-glucose to UDP-glucuronic acid by AtUGDH1 combined with conversion of UDP-glucuronic acid to UDP-xylose by AtUXS3. In step 3, glycosyl transferases convert the activated sugar and a cannabinoid acceptor to the corresponding cannabinoid glycoside. For example, conversion of UDP-rhamnose and CBD to CBD-1′-O-β-D-rhamnoside (OB13) by Cs73Y (SEQ ID NO: 157, 158).
Enzymes were purified and the in vitro assay performed as described in Example 13 and the reaction mixture set up as shown in table 57. Enzymes and co-factors were added as required for each individual reaction. Samples were extracted and analyzed as stated above.

Data on two molecules can be found in patent publication US20220290200A1, “GENETICALLY MODIFIED HOST CELLS PRODUCING GLYCOSYLATED CANNABINOIDS” (OCTARINE BIO IVS, priority 2019, published 2022).

Where two headings read alike, the source gives them in different places.

As for `C=C(C)[C@@H]1CCC(C)=C[C@H]1c1c(O)cc(CCCCC)cc1O` [CBD, cannabidiol, reference compound], the recovery at 120 min, 10 μM in data set [1] (Caco-2, apical to basolateral, 120 min, read-out: Mean recovery (%), Direction A→B) was found to be 16.4%; in data set [1] (Caco-2, basolateral to apical, 120 min, read-out: Mean recovery (%), Direction B→A) it was 48.8%. Besides, the Papp A→B at 120 min, 10 μM in data set [1] (Caco-2, apical to basolateral, 120 min, mean and standard deviation of duplicates, read-out: Mean Papp, Direction A→B) worked out at 0.61 ± 0.03 ×10⁻⁶ cm/s. In addition, in data set [1] (Caco-2, basolateral to apical, 120 min, mean and standard deviation of duplicates, read-out: Mean Papp, Direction B→A), the Papp B→A at 120 min, 10 μM came out at 1.45 ± 0.64 ×10⁻⁶ cm/s. Further, the efflux ratio at 120 min, 10 μM in data set [1] (Caco-2, ratio of B−A and A−B permeabilities) was 2.37.

In the case of `C=C(C)[C@@H]1CCC(C)=C[C@H]1c1c(O[C@@H]2O[C@H](CO)[C@@H](O)[C@H](O)[C@H]2O)cc(CCCCC)cc1O[C@@H]1O[C@H](CO)[C@@H](O)[C@H](O)[C@H]1O` [OB6, CBD-1′-O-β-D-glucosyl-3′-O-β-D-glucoside], the “% Conversion of CBD and sucrose to CBD glycoside” value in data set [2] is 91.3%.

What is called Papp A→B is the apparent permeability from the apical to the basolateral side of a cell layer. As a reminder, the Papp B→A is the apparent permeability from the basolateral to the apical side of a cell layer. Usually efflux ratio stands for the permeability from basolateral to apical divided by that in the opposite direction, in the common usage.
